Experimental data: patent publication US8846653B2, “Delta-tocotrienol treatment and prevention of pancreatic cancer” (University of South Florida, priority 2006, dated 2014)

What was measured:
Format in all cases: cell-based, human
[1] = tested on: MiaPaCa-2 cells; test: MTT assay of MiaPaCa2 cultures, single 50 μM dose; design: rel amt (relative value set to the control): unit not given here; conditions: MiaPaCa2, 50 μM; for MTT assay result, av-blank: average minus blank; for MTT assay result, av: average of 7 runs
Procedure, shortened: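 MiaPaCa-2 cells given a single 50 μM dose of test agent (tocotrienols, tocopherols, tocopherol succinate, geranylgeraniol or succinic acid) or vehicle (ethanol-extracted olive oil). Viability read by MTT at 48 or 120 hours after treatment, alongside vehicle-only control culture.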

[2] = tested on: MiaPaCa-2 cells; test: MTS assay of MiaPaCa2 cultures, single 50 μM dose; conditions: MiaPaCa2, 50 μM
Procedure, shortened: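 MiaPaCa-2 pancreatic cancer cells were grown in complete DMEM with 10% fetal bovine serum, 1% penicillin-streptomycin and 1% L-glutamine, kept at 37° C. in a humidified 5% CO2 incubator. They received a single 50 μM dose of test agent or vehicle alongside an untreated control culture, and viability was assessed by MTS assay.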

[3] = tested on: BXPC3 cells; test: MTT assay of BXPC3 cultures, single 50 μM dose; design: MTT assay result, run 1 / MTT assay result, run 2 / MTT assay result, run 3 / MTT assay result, run 4 / MTT assay result, run 5 / MTT assay result, run 6 / MTT assay result, run 7 / MTT assay result, av (average) / MTT assay result, av-blank / MTT assay result, av: unit not given here; conditions: BXPC3, 50 μM; for MTT assay result, av-blank: average minus blank
Procedure, shortened: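 BXPC3 cells in 10% FBS medium at 37° C, 5% CO2, given a single 50 μM dose of tocotrienols, tocopherols, tocopherol succinate, geranylgeraniol, succinic acid or vehicle, alongside untreated control. Viability read by MTT at 48 or 120 hours.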

For CC(C)=CCC/C(C)=C/CC/C(C)=C/CC[C@]1(C)CCc2cc(O)c(C)c(C)c2O1 [T3 gamma, gamma tocotrienol], the “rel amt (relative value set to the control)” value (from here on “relative value set”) ([1]; 48 hours) was 40, the “MTT assay result, av-blank” value ([1]; 48 hours) was 0.124 and the “MTT assay result, av” value ([1]; 48 hours) was 0.170. The “MTT assay result, run 1” value ([1]; 48 hours) was 0.185, the “MTT assay result, run 2” value ([1]; 48 hours) was 0.181 and the “MTT assay result, run 3” value ([1]; 48 hours) was 0.156. For the same compound, the “MTT assay result, run 4” value ([1]; 48 hours) was 0.183, the “MTT assay result, run 5” value ([1]; 48 hours) was 0.21 and the “MTT assay result, run 6” value ([1]; 48 hours) was 0.141. The “MTT assay result, run 7” value ([1]; 48 hours) was 0.137, the “relative value set” value ([1]; 120 hours (5 days)) was 2 and the “MTT assay result, av-blank” value ([1]; 120 hours (5 days)) was 0.042. The “MTT assay result, av” value ([1]; 120 hours (5 days)) was 0.094, the “MTT assay result, run 1” value ([1]; 120 hours (5 days)) was 0.088 and the “MTT assay result, run 2” value ([1]; 120 hours (5 days)) was 0.084. For the same compound, the “MTT assay result, run 3” value ([1]; 120 hours (5 days)) was 0.098, the “MTT assay result, run 4” value ([1]; 120 hours (5 days)) was 0.089 and the “MTT assay result, run 5” value ([1]; 120 hours (5 days)) was 0.12. For the same compound, the “MTT assay result, run 6” value ([1]; 120 hours (5 days)) was 0.084, the “MTT assay result, run 7” value ([1]; 120 hours (5 days)) was 0.092 and the “relative value set” value ([2]; 24 hours) was 66. For the same compound, the “MTS assay result, run 1” value ([2]; 24 hours) was 0.133, the “MTS assay result, run 2” value ([2]; 24 hours) was 0.135 and the “MTS assay result, run 3” value ([2]; 24 hours) was 0.141. For the same compound, the “MTS assay result, run 4” value ([2]; 24 hours) was 0.127, the “MTS assay result, run 5” value ([2]; 24 hours) was 0.142 and the “MTS assay result, run 6” value ([2]; 24 hours) was 0.166. For the same compound, the “MTS assay result, run 7” value ([2]; 24 hours) was 0.171, the “MTS assay result, run 8” value ([2]; 24 hours) was 0.162 and the “MTS assay result, run 9” value ([2]; 24 hours) was 0.147. The “relative value set” value ([2]; 48 hours) was 37, the “MTS assay result, run 1” value ([2]; 48 hours) was 0.095 and the “MTS assay result, run 2” value ([2]; 48 hours) was 0.116. The “MTS assay result, run 3” value ([2]; 48 hours) was 0.111, the “MTS assay result, run 4” value ([2]; 48 hours) was 0.128 and the “MTS assay result, run 5” value ([2]; 48 hours) was 0.159. For the same compound, the “MTS assay result, run 6” value ([2]; 48 hours) was 0.147, the “MTS assay result, run 7” value ([2]; 48 hours) was 0.167 and the “MTS assay result, run 8” value ([2]; 48 hours) was 0.152. The “MTS assay result, run 9” value ([2]; 48 hours) was 0.134, the “relative value set” value ([2]; 72 hours) was 177 and the “MTS assay result, run 1” value ([2]; 72 hours) was 0.776. The “MTS assay result, run 2” value ([2]; 72 hours) was 0.744, the “MTS assay result, run 3” value ([2]; 72 hours) was 0.876 and the “MTS assay result, run 4” value ([2]; 72 hours) was 0.734. For the same compound, the “MTS assay result, run 5” value ([2]; 72 hours) was 0.812, the “MTS assay result, run 6” value ([2]; 72 hours) was 0.817 and the “MTS assay result, run 7” value ([2]; 72 hours) was 0.773. The “MTS assay result, run 8” value ([2]; 72 hours) was 0.759, the “MTS assay result, run 9” value ([2]; 72 hours) was 0.786 and the “relative value set” value ([3]; 48 hours) was 99. The “MTT assay result, av-blank” value ([3]; 48 hours) was 0.226, the “MTT assay result, av (average)” value ([3]; 48 hours, average of 7 runs) was 0.275 and the “MTT assay result, run 1” value ([3]; 48 hours) was 0.259. For the same compound, the “MTT assay result, run 2” value ([3]; 48 hours) was 0.257, the “MTT assay result, run 3” value ([3]; 48 hours) was 0.289 and the “MTT assay result, run 4” value ([3]; 48 hours) was 0.279. For the same compound, the “MTT assay result, run 5” value ([3]; 48 hours) was 0.268, the “MTT assay result, run 6” value ([3]; 48 hours) was 0.292 and the “MTT assay result, run 7” value ([3]; 48 hours) was 0.283. The “relative value set” value ([3]; 120 hours (5 days)) was 66, the “MTT assay result, av-blank” value ([3]; 120 hours (5 days)) was 0.377 and the “MTT assay result, av” value ([3]; 120 hours (5 days), average of 7 runs) was 0.432. For the same compound, the “MTT assay result, run 1” value ([3]; 120 hours (5 days)) was 0.418, the “MTT assay result, run 2” value ([3]; 120 hours (5 days)) was 0.446 and the “MTT assay result, run 3” value ([3]; 120 hours (5 days)) was 0.446. The “MTT assay result, run 4” value ([3]; 120 hours (5 days)) was 0.457, the “MTT assay result, run 5” value ([3]; 120 hours (5 days)) was 0.428 and the “MTT assay result, run 6” value ([3]; 120 hours (5 days)) was 0.412. The “MTT assay result, run 7” value ([3]; 120 hours (5 days)) was 0.42.
